The source of these data is US20200385398A1, “NEW BICYCLIC DERIVATIVES” (Elanco Tiergesundheit AG, priority 2019, published 2020).

Molecules are shown by their SMILES.

This experiment deals with D. immitis microfilariae. In words: Dog heart worm microfilariae motility assay. Format: cell-based. To be noted: Dirofilaria immitis, read-out: EC50 (motility inhibition).

For `O=C(NN1CCOc2ccccc21)c1cnc2c(-c3cc(F)cc(F)c3F)cccc2c1N1CCSCC1` [Example 5.10, N-(2,3-dihydro-1,4-benzoxazin-4-yl)-4-thiomorpholino-8-(2,3,5-trifluorophenyl)quinoline-3-carboxamide], the concentration for a half-maximal effect (EC50) was less than 0.1 µg/mL.
